6 molecules from PMC10233823, “Conjugates of Aminoglycosides with Stapled Peptides as a Way to Target Antibiotic-Resistant Bacteria” (ACS Omega, 2023) can be followed below.

Converted amounts (≈) assume the structure as drawn. Where two headings read alike, the source gives them in different places. Peptide text beside a SMILES is read from it. * marks the point of attachment. X2 = NC[C@@H]1O[C@H](O[C@H]2[C@@H](O)[C@H](O[C@@H]3[C@@H](O)[C@H](N)C[C@H](N)[C@H]3O[C@H]3O[C@H](CN)[C@@H](O)[C@H](O)[C@H]3N)O[C@@H]2CS*)[C@H](N)[C@@H](O)[C@@H]1O A value given as a limit tells only on which side of the number the result lay.

Assay in all cases: microbe, parasite or virus in culture
The test system of test [1] is S. aureus ATCC 29213. The test is classed as cell-based, Staphylococcus aureus. The conditions noted are these: 20 h, 37 °C with shaking, OD600. Here is the method:
(§1) The antibacterial activity of the conjugates was assessed by determining their minimum inhibitory concentration (MIC) and minimum bactericidal concentration (MBC) against Gram-negative E. coli (K12 MG 1655 and WR 3551/98) and Gram-positive S. aureus (ATCC 29213 and ATCC BAA1720 MRSA) strains (Table 1, Figures S16–S23).
(§2) The MIC values were determined as follows. Bacteria were first cultured overnight in 2 mL of lysogeny broth (LB, VWR Chemicals) at 37 °C with shaking. Next, 20 μL of overnight culture was transferred into 2 mL of […] (MHB, Difco) medium and further cultured at 37 °C with shaking until the culture reached OD600 = 0.3. Subsequently, the culture was diluted 1:100 in a fresh MHB medium, and aliquots of 50 μL were mixed with 50 μL of previously prepared dilutions of the tested compound in MHB on a transparent flat-bottom 96-well plate (Nest). The plate was then sealed with transparent foil (Titer-Tops) and incubated for 20 h, at 37 °C with shaking. Following incubation, optical density at 600 nm was measured using a Tecan Sunrise plate reader. Growth inhibition was determined by comparing the given sample with untreated culture (growth control—GC) with MHB alone (sterility control—SC) as an additional reference. The experiment was conducted in at least two biological replicates of two technical replicates each. Statistical significance was determined by the two-way ANOVA test using GraphPad Prism 9 software.

Test [2] has as its system S. aureus ATCC BAA1720 MRSA. The test is classed as cell-based, Staphylococcus aureus. Particulars: S. aureus ATCC BAA1720 MRSA (NEO-resistant), MHB, 20 h, 37 °C with shaking, OD600. Here is the method:
as §1, §2

The subject of test [3] is E. coli WR 3551/98. The test is classed as cell-based, Escherichia coli. Particulars: 24 h, 37 °C. Here is the method: as §1
(§3) The MBC values were determined by diluting wells from the MIC experiment plate in fresh MHB medium. Dilutions of 10-, 100-, and 1000-times were prepared for the MIC well and up to two-folds higher than MIC concentrations of a given compound. Dilutions were made on a transparent flat-bottom 96-well plate (Nest), which was then sealed and incubated for 24 h, at 37 °C with shaking. The growth of a given sample well was compared with GC and SC controls.

Test [4] deals with E. coli K12 MG1655. The test is classed as cell-based, Escherichia coli. The conditions noted are these: MIC wells diluted 10-, 100-, 1000-times in fresh MHB, 24 h, 37 °C, bactericidal if no growth at 100- and 1000-times dilutions. Here is the method:
as §1, §3

Test [5] deals with E. coli WR 3551/98. The test is classed as cell-based, Escherichia coli. The conditions noted are these: for MIC: E. coli WR 3551/98 (AMK-resistant), MHB, 20 h, 37 °C with shaking, OD600. Here is the method:
as §1, §2

Test [6] has as its system E. coli K12 MG1655. Type of test: cell-based, Escherichia coli. Particulars: MHB, 20 h, 37 °C with shaking, OD600, at least two biological replicates of two technical replicates. Here is the method: as §1, §2
Test [7] concerns S. aureus ATCC 29213. The test is classed as cell-based, Staphylococcus aureus. Particulars: 24 h, 37 °C. Here is the method: as §1, §3
Test [8] relates to S. aureus ATCC BAA1720 MRSA. Type of test: cell-based, Staphylococcus aureus. Particulars: MIC wells diluted in fresh MHB, 24 h, 37 °C. Here is the method:
as §1, §3

The mark [9] stands for this setting: MIC wells diluted in fresh MHB, read-out: MBC.
Setting [10] is: Staphylococcus aureus, ATCC29213, MHB.
The mark [11] stands for this setting: Escherichia coli, WR3551/98, MIC wells diluted in fresh MHB, read-out: MBC.
[12] abbreviates: Escherichia coli, read-out: MBC.
The mark [13] stands for this setting: Staphylococcus aureus, ATCC29213, MIC wells diluted in fresh MHB, read-out: MBC.

Take `CC[C@H](C)[C@H](NC(=O)[C@H](CCCNC(=N)N)NC(=O)[C@H](CCCCN)NC(=O)[C@H](CC(C)C)NC(=O)[C@H](CC(C)C)NC(=O)CNC(=O)CCCCCCCCc1cn(C[C@H]2O[C@H](O[C@@H]3[C@@H](O)[C@H](O[C@H]4O[C@H](CN)[C@@H](O)[C@H](O)[C@H]4O)[C@@H](N)C[C@H]3NC(=O)[C@@H](O)CCN)[C@H](O)[C@@H](N)[C@@H]2O)nn1)C(=O)N[C@@H](CCCCN)C(=O)N[C@H](C(=O)N[C@@H](CC(C)C)C(=O)N[C@@H](CC(C)C)C(N)=O)[C@@H](C)O` [AMK-anoplin] (HELM PEPTIDE1{[NCC[C@H](O)C(=O)N[C@@H]1C[C@H](N)[C@@H](O[C@H]2O[C@H](CN)[C@@H](O)[C@H](O)[C@H]2O)[C@H](O)[C@H]1O[C@H]1O[C@H](Cn2cc(CCCCCCCCC(=O)[*:2])nn2)[C@@H](O)[C@H](N)[C@H]1O].G.L.L.K.R.I.K.T.L.L.[am]}$$$$V2.0): the MIC is given as 32 µM (≈ 61.7 µg/mL) in test [1] (MHB), above 32 µM in test [2], 16 µM (≈ 30.9 µg/mL) in test [5] and 16 µM (≈ 30.9 µg/mL) in test [6]. Moreover, the MBC was 16 to 32 µM in test [3] (MIC wells diluted in fresh MHB), 16 µM (≈ 30.9 µg/mL) in test [4] (read-out: MBC), above 32 µM in test [7] (setting [9]) and above 32 µM in test [8].

On to `CC[C@H](C)[C@H](NC(=O)[C@H](CCCNC(=N)N)NC(=O)[C@H](CCCCN)NC(=O)[C@H](CC(C)C)NC(=O)[C@H](CC(C)C)NC(=O)CNC(=O)[C@@H](N)CSSC[C@H]1O[C@@H](O[C@@H]2[C@@H](O)[C@H](N)C[C@H](N)[C@H]2O[C@H]2O[C@H](CN)[C@@H](O)[C@H](O)[C@H]2N)[C@H](O)[C@@H]1O[C@H]1O[C@@H](CN)[C@@H](O)[C@H](O)[C@H]1N)C(=O)N[C@@H](CCCCN)C(=O)N[C@H](C(=O)N[C@@H](CC(C)C)C(=O)N[C@@H](CC(C)C)C(N)=O)[C@@H](C)O` [NEO-SS-anoplin] (H-C(X2)GLLKRIKTLL-NH2), for which the MIC in test [1] (MHB) is listed as 4 µM (≈ 7.54 µg/mL); in test [2], above 32 µM; in test [5] it was 8 µM (≈ 15.1 µg/mL); in test [6] it was 8 µM (≈ 15.1 µg/mL). Moreover, the MBC in test [3] (setting [9]) is 16 µM (≈ 30.2 µg/mL); in test [4] (read-out: MBC) it was 8 µM (≈ 15.1 µg/mL); in test [7] (setting [9]), 8 µM (≈ 15.1 µg/mL); in test [8] it was above 32 µM.

Consider `CC[C@H](C)[C@H](NC(=O)[C@H](CCCNC(=N)N)NC(=O)[C@H](CCCCN)NC(=O)[C@H](CC(C)C)NC(=O)[C@H](CC(C)C)NC(=O)CNC(=O)CCCCCCCCc1cn(C[C@H]2O[C@@H](O[C@@H]3[C@@H](O)[C@H](N)C[C@H](N)[C@H]3O[C@H]3O[C@H](CN)[C@@H](O)[C@H](O)[C@H]3N)[C@H](O)[C@@H]2O[C@H]2O[C@@H](CN)[C@@H](O)[C@H](O)[C@H]2N)nn1)C(=O)N[C@@H](CCCCN)C(=O)N[C@H](C(=O)N[C@@H](CC(C)C)C(=O)N[C@@H](CC(C)C)C(N)=O)[C@@H](C)O` [NEO-anoplin] (HELM PEPTIDE1{[NC[C@@H]1O[C@H](O[C@H]2[C@@H](O)[C@H](O[C@@H]3[C@@H](O)[C@H](N)C[C@H](N)[C@H]3O[C@H]3O[C@H](CN)[C@@H](O)[C@H](O)[C@H]3N)O[C@@H]2Cn2cc(CCCCCCCCC(=O)[*:2])nn2)[C@H](N)[C@@H](O)[C@@H]1O].G.L.L.K.R.I.K.T.L.L.[am]}$$$$V2.0), for which the MIC in test [1] (MHB) is 16 µM (≈ 31.3 µg/mL); in test [2] it was 32 µM (≈ 62.6 µg/mL); in test [5] it was 16 µM (≈ 31.3 µg/mL); in test [6] it was 8 µM (≈ 15.7 µg/mL). The MBC in test [3] (setting [9]) is 16 µM (≈ 31.3 µg/mL); in test [4] it was 8 to 16 µM; in test [7] (MIC wells diluted in fresh MHB), 16 to 32 µM; in test [8], 32 µM (≈ 62.6 µg/mL).

For the molecule `NCC[C@H](O)C(=O)N[C@@H]1C[C@H](N)[C@@H](O[C@H]2O[C@H](CN)[C@@H](O)[C@H](O)[C@H]2O)[C@H](O)[C@H]1O[C@H]1O[C@H](CO)[C@@H](O)[C@H](N)[C@H]1O` [amikacin (AMK), amikacin, reference compound], the MIC was 8 µM (≈ 4.68 µg/mL) in test [1] (setting [10]); 32 µM (≈ 18.7 µg/mL) in test [2] (Staphylococcus aureus); above 32 µM in test [5]; above 32 µM in test [5] (Escherichia coli, WR3551/98); 4 µM (≈ 2.34 µg/mL) in test [6] (Escherichia coli). Moreover, the MBC in test [3] (setting [11]) is above 32 µM; in test [4] (setting [12]), 8 to 16 µM (≈ 4.68 to 9.37 µg/mL); in test [7] (setting [13]), 8 µM (≈ 4.68 µg/mL); in test [8] (Staphylococcus aureus) it was at least 32 µM.

For `CC[C@H](C)[C@H](NC(=O)[C@H](CCCNC(=N)N)NC(=O)[C@H](CCCCN)NC(=O)[C@H](CC(C)C)NC(=O)[C@H](CC(C)C)NC(=O)CNC(=O)[C@@H](N)CSSC[C@H](N)C(=O)NCC(=O)N[C@@H](CC(C)C)C(=O)N[C@@H](CC(C)C)C(=O)N[C@@H](CCCCN)C(=O)N[C@@H](CCCNC(=N)N)C(=O)N[C@H](C(=O)N[C@@H](CCCCN)C(=O)N[C@H](C(=O)N[C@@H](CC(C)C)C(=O)N[C@@H](CC(C)C)C(N)=O)[C@@H](C)O)[C@@H](C)CC)C(=O)N[C@@H](CCCCN)C(=O)N[C@H](C(=O)N[C@@H](CC(C)C)C(=O)N[C@@H](CC(C)C)C(N)=O)[C@@H](C)O` [anoplin-SS-anoplin] (HELM PEPTIDE1{C.G.L.L.K.R.I.K.T.L.L.[am]}|PEPTIDE2{C.G.L.L.K.R.I.K.T.L.L.[am]}$PEPTIDE1,PEPTIDE2,1:R3-1:R3$$$V2.0), the MIC in test [1] (MHB) stood at 16 µM (≈ 40.2 µg/mL); in test [2] it was 16 µM (≈ 40.2 µg/mL); in test [5], 1 µM (≈ 2.51 µg/mL); in test [6] it was 4 µM (≈ 10 µg/mL). The MBC was found to be 2 µM (≈ 5.02 µg/mL) in test [3] (setting [9]), 8 µM (≈ 20.1 µg/mL) in test [4] (read-out: MBC), 32 µM (≈ 80.4 µg/mL) in test [7] (setting [9]) and 32 µM (≈ 80.4 µg/mL) in test [8]. Moreover, in test [5] (E. coli WR 3551/98), the “MIC enhancement compared to anoplin monomer” value was determined as 32 fold.

Turning to `NC[C@@H]1O[C@H](O[C@H]2[C@@H](O)[C@H](O[C@@H]3[C@@H](O)[C@H](N)C[C@H](N)[C@H]3O[C@H]3O[C@H](CN)[C@@H](O)[C@H](O)[C@H]3N)O[C@@H]2CO)[C@H](N)[C@@H](O)[C@@H]1O` [neomycin (NEO), neomycin, reference compound], the MIC in test [1] (setting [10]) was 1 µM (≈ 0.615 µg/mL); in test [2] (Staphylococcus aureus), above 32 µM; in test [5] (Escherichia coli, WR3551/98), 4 µM (≈ 2.46 µg/mL); in test [6] (Escherichia coli), 4 µM (≈ 2.46 µg/mL). For the same molecule, the MBC in test [3] (setting [11]) was 8 µM (≈ 4.92 µg/mL); in test [4] (setting [12]), 4 µM (≈ 2.46 µg/mL); in test [7] (setting [13]) it was 2 µM (≈ 1.23 µg/mL); in test [8] (Staphylococcus aureus), above 32 µM.
